Assay results taken from patent publication US20240285615A1, “MEDICAMENTS COMPRISING GLYCOSIDASE INHIBITORS” (priority 2021, published 2024).
Read-outs that look alike come from different tables or passages of the source.

Key:
[1] = Phase 1 Part 1a: single rising oral doses, fasted, plasma pharmacokinetics; assay type: in vivo, human; conditions: for AUC(0-inf) / Cmax / Tmax / half-life: human, plasma
Source text: A Randomized, Double-Blind, Placebo-Controlled, Phase 1 Study to Assess the Safety, Tolerability, Pharmacokinetics and Food Effect of Single and Multiple Doses of Orally Administered Compound of Formula (I) in Healthy Adult and Elderly Subjects The study was a single-centre, randomized, placebo-controlled single- and multiple ascending dose study in healthy male and female (no childbearing potential) volunteers aged 18-80 years. Study objectives were safety, tolerability, food effect and pharmacokinetics. Following identification of safe and tolerable single doses in healthy male subjects aged 18-55 years, separate cohorts were dosed to assess food effect. Furthermore, multiple-dose safety, tolerability, pharmacokinetics, CSF drug levels and pharmacodynamics were assessed in elderly (age 55-80 years) male or healthy non-child-bearing potential female volunteers. [table] The single-dose pharmacokinetics of seven, ascending, dose levels of compound of Formula (I) (20, 40, 80, 160, 300, 600 and 1000 mg of compound (I) fasted state) were evaluated in part 1a of a randomized, placebo-controlled, time lagged, parallel/crossover group study in healthy young volunteers Compound (I) pharmacokinetic data were measured in plasma and in urine up to 72 hours post dose.

[2] = Phase 1 Part 1b: food effect, single 300 mg dose fasted/fed, plasma pharmacokinetics; assay type: in vivo, human; conditions: for Tmax / AUC(0-inf) / Cmax / half-life: human, plasma; for AUC(0-inf) / Cmax / half-life: arithmetic mean
Protocol: The study was a single-centre, randomized, placebo-controlled single- and multiple ascending dose study in healthy male and female (no childbearing potential) volunteers aged 18-80 years. Study objectives were safety, tolerability, food effect and pharmacokinetics. Following identification of safe and tolerable single doses in healthy male subjects aged 18-55 years, separate cohorts were dosed to assess food effect. Furthermore, multiple-dose safety, tolerability, pharmacokinetics, CSF drug levels and pharmacodynamics were assessed in elderly (age 55-80 years) male or healthy non-child-bearing potential female volunteers. [table]

[3] = Phase 1 Part 2: cerebrospinal fluid (CSF) pharmacokinetics after multiple BID doses; assay type: in vivo, human; conditions: for Cmax / AUC / half-life / Tmax: human, oral, CSF; for AUC: read-out: AUC0-tau; for Tmax: median (min, max)
Source text: Day 1: Twice a day (BID) dosing. Day 2: No dosing. Day 3-11: 9 days of BID dosing. Day 12: one dose in the morning.

DSS colitis model = assay: In vivo treatment efficacy on DSS colitis model; conditions: balb/c mice, oral gavage for 21 days, 5% DSS
Protocol: The dextran sodium sulfate (DSS) is a negatively charged sulfated polysaccharide of approximately 36-50 kDa which induces colitis when administered at 5% (weight/volume) in drinking water for several days (Okayasu I. et al. (1990) Gastroenterology 98:694-702).
Adult (balb/c) mice are randomized and are allowed to a period of acclimatization for one week. After this, the compound of formula (I) or vehicle is administered for 21 days by oral gavage, starting 2 weeks before the DSS treatment (Day −14) and continuing during DSS treatment and until the end of the experiment (Day +9). At Day 0, animals are getting access to a 5% (weight/volume) DSS solution in drinking water until Day +5. The DSS solution is then removed and replaced by drinking water for 4 more days until Day +9. From Day 0 until the end of the experiment […], animals are monitored daily for clinical signs of colitis including bodyweight loss, loose stools and/or diarrhoea and presence of occult or gross blood in the stools. At Day +12 or when animals reach humane endpoints, colons are dissected out, to measure their lengths and observe their content. A sample of distal colon is processed for histopathology. […]
Histological injury and inflammation are scored as described in Gilbert et al (2012) (Gilbert S. et al. (2012) EMBO Mol. Med. 4: 109-124). […]

[4] = single oral dose 20 mg, fasted, healthy male subjects, arithmetic mean
[5] = single oral dose 40 mg, fasted, healthy male subjects, arithmetic mean
[6] = single oral dose 80 mg, fasted, healthy male subjects, arithmetic mean
[7] = single oral dose 160 mg, fasted, healthy male subjects, arithmetic mean
[8] = single oral dose 300 mg, fasted, healthy male subjects, arithmetic mean
[9] = single oral dose 600 mg, fasted, healthy male subjects, arithmetic mean
[10] = single oral dose 1000 mg, fasted, healthy male subjects, arithmetic mean
[11] = po, single oral dose 300 mg, fasted condition, healthy elderly subjects
[12] = po, single oral dose 300 mg, fed condition, healthy elderly subjects
[13] = both sexes, 250 mg BID, Day 12, elderly subjects, arithmetic mean
[14] = both sexes, 500 mg BID, Day 12, elderly subjects, arithmetic mean
[15] = 100 mg BID, Day 12, elderly subjects, N=1

## CC(=O)Nc1nnc(N2CCN([C@@H](C)c3ccc4c(c3)OCO4)CC2)s1 [Compound (I)]
[1]; AUC over 24 hours, dose levels 300, 600 and 1000 mg
  deviation of dose normalized AUC: ≤ 10%
[1]; [4]
  AUC(0-inf): 473 ng·h/mL
  Cmax: 227 ng/mL
[1]; single oral dose 20 mg, fasted, healthy male subjects, median (min, max), read-out: Tmax
  Tmax: 0.5 h
[1]; [5]
  AUC(0-inf): 1160 ng·h/mL
  Cmax: 468 ng/mL
[1]; single oral dose 40 mg, fasted, healthy male subjects, median (min, max), read-out: Tmax
  Tmax: 1 h
[1]; [6]
  AUC(0-inf): 3270 ng·h/mL
  Cmax: 1370 ng/mL
[1]; single oral dose 80 mg, fasted, healthy male subjects, median (min, max), read-out: Tmax
  Tmax: 0.5 h
[1]; [7]
  AUC(0-inf): 7010 ng·h/mL
  Cmax: 1880 ng/mL
[1]; single oral dose 160 mg, fasted, healthy male subjects, median (min, max), read-out: Tmax
  Tmax: 1.5 h
[1]; [8]
  AUC(0-inf): 15400 ng·h/mL
  Cmax: 3990 ng/mL
[1]; single oral dose 300 mg, fasted, healthy male subjects, median (min, max), read-out: Tmax
  Tmax: 1.25 h
[1]; [9]
  AUC(0-inf): 33300 ng·h/mL
  Cmax: 7180 ng/mL
[1]; single oral dose 600 mg, fasted, healthy male subjects, median (min, max), read-out: Tmax
  Tmax: 1.25 h
[1]; [10]
  AUC(0-inf): 50200 ng·h/mL
  Cmax: 10100 ng/mL
[1]; single oral dose 1000 mg, fasted, healthy male subjects, median (min, max), read-out: Tmax
  Tmax: 1.5 h
[1]; male, oral, single dose 20 to 1000 mg, read-out: terminal half-life (t½), range of means at the different dose levels
  half-life: 3.9 to 10.7 h
[1]; male, oral, single dose 20 mg to 1000 mg, read-out: mean terminal half-life, range over the 7 dose levels
  half-life: 4.59 to 8.84 h
[1]; male, oral, single dose 20 mg to 1000 mg, read-out: median Tmax, range over dose levels
  Tmax: 0.5 to 1.5 h
[1]; male, po, 20 mg, single oral dose 20 mg, fasted, healthy male subjects, arithmetic mean, read-out: t1/2 (converted)
  half-life: 4.59 h
[1]; male, po, 40 mg, single oral dose 40 mg, fasted, healthy male subjects, arithmetic mean, read-out: t1/2 (converted)
  half-life: 5.95 h
[1]; male, po, 80 mg, single oral dose 80 mg, fasted, healthy male subjects, arithmetic mean, read-out: t1/2 (converted)
  half-life: 8.84 h
[1]; male, po, 160 mg, single oral dose 160 mg, fasted, healthy male subjects, arithmetic mean, read-out: t1/2 (converted)
  half-life: 6.83 h
[1]; male, po, 300 mg, single oral dose 300 mg, fasted, healthy male subjects, arithmetic mean, read-out: t1/2 (converted)
  half-life: 7.95 h
[1]; male, po, 600 mg, single oral dose 600 mg, fasted, healthy male subjects, arithmetic mean, read-out: t1/2 (converted)
  half-life: 6.07 h
[1]; male, po, 1000 mg, single oral dose 1000 mg, fasted, healthy male subjects, arithmetic mean, read-out: t1/2 (converted)
  half-life: 6.6 h
[1]; single dose, dosing range 20 mg to 1000 mg
  dose proportionality of Cmax: Dose proportionality was observed
[1]; single dose, dosing range 300 mg to 1000 mg
  dose proportionality of AUCs: Dose proportionality was observed
[2]
  overall exposure via AUC0-t and AUC0-inf, fed versus fasted: comparable
[2]; fasted state
  difference of exposure (AUC) and Cmax, healthy elderly versus healthy young cohort: 15%
[2]; healthy elderly subjects
  Cmax in fed state as share of Cmax in fasted state: about 60%
  delay of absorption in fed state: approximately 3 hours
  exposure (AUC) in fed state as share of exposure in fasted state: approximately 90%
[2]; oral, fasted condition, read-out: median Tmax
  Tmax: 1 h
[2]; oral, with high-fat, high-calorie meal, read-out: median Tmax
  Tmax: 4 h
[2]; [11]
  AUC(0-inf): 17100 ng·h/mL
  Cmax: 4160 ng/mL
  half-life: 7.27 h
[2]; po, single oral dose 300 mg, fasted condition, healthy elderly subjects, median (min, max), read-out: Tmax
  Tmax: 1 h
[2]; [12]
  AUC(0-inf): 15100 ng·h/mL
  Cmax: 2410 ng/mL
  half-life: 7.06 h
[2]; po, single oral dose 300 mg, fed condition, healthy elderly subjects, median (min, max), read-out: Tmax
  Tmax: 4 h
[3]; Day 12 after multiple doses
  blood-brain-barrier penetration (detection in CSF): penetrated through the blood-brain-barrier
[3]; [13]
  Cmax: 92.5 ng/mL
  AUC: 485 ng·h/mL
[3]; both sexes, 250 mg BID, Day 12, elderly subjects, arithmetic mean, read-out: t1/2 (converted)
  half-life: 10.3 h
[3]; both sexes, 250 mg BID, Day 12, elderly subjects
  Tmax: 3 h
[3]; [14]
  Cmax: 282 ng/mL
  AUC: 1400 ng·h/mL
[3]; both sexes, 500 mg BID, Day 12, elderly subjects, arithmetic mean, read-out: t1/2 (converted)
  half-life: 10.8 h
[3]; both sexes, 500 mg BID, Day 12, elderly subjects
  Tmax: 2.02 h
[3]; both sexes, 100 to 500 mg BID, read-out: terminal half-life (t½), range of means
  half-life: 3.9 to 10.7 h
[3]; [15]
  Cmax: 46.7 ng/mL
  AUC: 236 ng·h/mL
  Tmax: 4.03 h
[3]; 100 mg BID, Day 12, elderly subjects, N=1, read-out: t1/2 (converted)
  half-life: 5.78 h
DSS colitis model
  disease score (body weight loss, stool, blood in feces, general appearance): decrease in the disease score
  tissue inflammation by histology examination: significant decrease of tissue inflammation
